Assay results published in ChEMBL document CHEMBL1909046, “DrugMatrix in vitro pharmacology data”.

Legend:
[1] = target: Beta-2 adrenergic receptor (Homo sapiens, UniProt P07550); assay: DRUGMATRIX: Adrenergic beta2 radioligand binding (ligand: [3H] CGP-12177); type: cell membranes, Membrane; settings: cho; Not Active = under 50% inhibition at 10 µM
D(3) dopamine receptor = D(3) dopamine receptor (Homo sapiens, UniProt P35462); assay: DRUGMATRIX: Dopamine D3 radioligand binding (ligand: [3H] Spiperone); type: cell membranes, CHO, Membrane; settings: cho
Sequence of D(3) dopamine receptor (P35462 whole entry): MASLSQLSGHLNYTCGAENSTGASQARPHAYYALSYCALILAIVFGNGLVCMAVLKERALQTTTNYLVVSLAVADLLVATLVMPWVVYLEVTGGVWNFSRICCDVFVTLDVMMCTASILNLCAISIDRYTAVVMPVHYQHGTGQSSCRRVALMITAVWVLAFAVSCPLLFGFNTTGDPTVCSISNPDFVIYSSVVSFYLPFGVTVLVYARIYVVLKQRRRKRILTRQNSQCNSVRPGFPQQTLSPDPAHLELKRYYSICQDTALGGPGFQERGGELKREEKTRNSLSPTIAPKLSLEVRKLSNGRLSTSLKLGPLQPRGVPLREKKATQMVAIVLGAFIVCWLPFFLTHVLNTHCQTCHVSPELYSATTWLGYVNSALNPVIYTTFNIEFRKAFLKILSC

[2] = DRUGMATRIX: Glutamate, NMDA, Agonism radioligand binding (ligand: [3H] CGP-39653); type: cell membranes, Rattus norvegicus, Wistar, Cerebral cortex, Membrane; settings: Not Active = under 50% inhibition at 10 µM
[3] = DRUGMATRIX: Glutamate, NMDA, Phencyclidine radioligand binding (ligand: [3H] TCP); type: cell membranes, Rattus norvegicus, Wistar, Cerebral cortex, Membrane; settings: Not Active = under 50% inhibition at 10 µM
[4] = DRUGMATRIX: Imidazoline I2, Central radioligand binding (ligand: [3H] Idazoxan); type: cell membranes, Rattus norvegicus, Wistar, Cerebral cortex, Membrane; settings: Not Active = under 50% inhibition at 10 µM
[5] = target: T1, Neuropeptide Y receptor type 2 (Homo sapiens, UniProt P49146); type: cell membranes, Membrane; settings: kan-ts; note: in other assays of this panel Not Active means under 50% inhibition at 10 µM
T1 sequence (P49146 whole entry): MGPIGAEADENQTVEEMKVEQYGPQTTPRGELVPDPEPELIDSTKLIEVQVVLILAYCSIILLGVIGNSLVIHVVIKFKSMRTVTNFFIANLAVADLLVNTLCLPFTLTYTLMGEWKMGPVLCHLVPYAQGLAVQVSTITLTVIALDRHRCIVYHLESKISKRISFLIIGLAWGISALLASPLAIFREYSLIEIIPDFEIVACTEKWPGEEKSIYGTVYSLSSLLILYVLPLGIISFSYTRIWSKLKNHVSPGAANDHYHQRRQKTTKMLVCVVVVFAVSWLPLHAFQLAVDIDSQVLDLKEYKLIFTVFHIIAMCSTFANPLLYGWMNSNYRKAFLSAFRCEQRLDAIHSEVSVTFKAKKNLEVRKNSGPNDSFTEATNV

[6] = target: Tyrosine-protein kinase Lck (Homo sapiens, UniProt P06239); assay: DRUGMATRIX: Protein Tyrosine Kinase, LCK enzyme inhibition (substrate: Poly(Glu:Tyr)); type: cell-based, Insect cells; settings: Not Active = under 50% inhibition at 10 µM
Sequence of Tyrosine-protein kinase Lck (P06239 whole entry): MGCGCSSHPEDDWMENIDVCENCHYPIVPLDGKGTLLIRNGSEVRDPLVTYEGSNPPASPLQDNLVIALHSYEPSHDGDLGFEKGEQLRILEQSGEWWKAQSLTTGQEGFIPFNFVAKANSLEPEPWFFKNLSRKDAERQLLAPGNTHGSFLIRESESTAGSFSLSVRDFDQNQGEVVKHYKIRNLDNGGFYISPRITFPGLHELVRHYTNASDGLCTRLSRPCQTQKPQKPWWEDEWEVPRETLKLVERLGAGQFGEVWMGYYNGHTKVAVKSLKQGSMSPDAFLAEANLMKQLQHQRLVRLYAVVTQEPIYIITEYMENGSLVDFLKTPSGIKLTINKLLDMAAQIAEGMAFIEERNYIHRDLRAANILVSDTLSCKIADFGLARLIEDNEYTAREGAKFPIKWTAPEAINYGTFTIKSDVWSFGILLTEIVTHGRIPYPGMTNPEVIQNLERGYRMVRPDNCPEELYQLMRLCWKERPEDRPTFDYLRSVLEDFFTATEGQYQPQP

Sequence of Beta-2 adrenergic receptor (P07550 whole entry): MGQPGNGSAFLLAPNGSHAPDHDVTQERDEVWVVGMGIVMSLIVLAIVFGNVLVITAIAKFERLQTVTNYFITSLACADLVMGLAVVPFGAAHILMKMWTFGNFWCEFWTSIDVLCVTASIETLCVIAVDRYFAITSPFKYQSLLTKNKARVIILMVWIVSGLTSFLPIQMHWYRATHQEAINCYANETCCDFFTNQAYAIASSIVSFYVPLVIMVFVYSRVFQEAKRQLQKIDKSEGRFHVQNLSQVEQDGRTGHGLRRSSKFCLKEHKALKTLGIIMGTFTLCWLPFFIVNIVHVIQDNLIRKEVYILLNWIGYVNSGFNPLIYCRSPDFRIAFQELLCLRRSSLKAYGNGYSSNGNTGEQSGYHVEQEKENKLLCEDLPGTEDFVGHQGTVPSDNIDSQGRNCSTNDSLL

| Structure (SMILES) | IC50 [1] | IC50 (D(3) dopamine receptor) | IC50 [2] | Ki [2] | IC50 [3] | Ki [3] | IC50 [4] | Ki [4] | IC50 [5] | IC50 ([6]; insect cells) | IC50 ([3]; read-out: IC50) | Ki ([3]; read-out: Ki) | IC50 ([6]; read-out: IC50) |
| --- | --- | --- | --- | --- | --- | --- | --- | --- | --- | --- | --- | --- | --- |
| O=C(N[C@H](CO)[C@H](O)c1ccc([N+](=O)[O-])cc1)C(Cl)Cl [CHLORAMPHENICOL] | Not Active | Not Active | Not Active | Not Active | Not Active | Not Active | Not Active | Not Active | Not Active | Not Active | – | – | – |
| ClC(Cl)Cl [CHLOROFORM] | Not Active | Not Active | Not Active | Not Active | Not Active | Not Active | Not Active | Not Active | Not Active | Not Active | – | – | – |
| C=C1CC[C@H](O)C/C1=C/C=C1\CCC[C@]2(C)[C@@H]([C@H](C)CCCC(C)C)CC[C@@H]12 [CHOLECALCIFEROL] | Not Active | Not Active | Not Active | Not Active | Not Active | Not Active | Not Active | Not Active | Not Active | Not Active | – | – | – |
| C[N+](C)(C)CCO.[Cl-] [CHOLINE CHLORIDE] | Not Active | Not Active | Not Active | Not Active | Not Active | Not Active | Not Active | Not Active | Not Active | Not Active | – | – | – |
| CCOC(=O)C(C)(C)Oc1ccc(Cl)cc1 [CLOFIBRATE] | Not Active | Not Active | Not Active | Not Active | Not Active | Not Active | Not Active | Not Active | Not Active | Not Active | – | – | – |
| CC(=O)OCC(=O)[C@@]1(O)CC[C@H]2[C@@H]3CCC4=CC(=O)CC[C@]4(C)[C@H]3C(=O)C[C@@]21C [CORTISONE ACETATE] | Not Active | Not Active | Not Active | Not Active | Not Active | Not Active | Not Active | Not Active | Not Active | Not Active | – | – | – |
| O=c1ccc2ccccc2o1 [COUMARIN] | Not Active | Not Active | Not Active | Not Active | Not Active | Not Active | Not Active | Not Active | Not Active | Not Active | – | – | – |
| C[C@@H]1C[C@@H]([C@H](O)CC2CC(=O)NC(=O)C2)C(=O)[C@@H](C)C1 [CYCLOHEXIMIDE] | Not Active | Not Active | Not Active | Not Active | Not Active | Not Active | Not Active | Not Active | Not Active | Not Active | – | – | – |
| C/C=C/C[C@@H](C)[C@@H](O)[C@H]1C(=O)N[C@@H](CC)C(=O)N(C)CC(=O)N(C)[C@@H](CC(C)C)C(=O)N[C@@H](C(C)C)C(=O)N(C)[C@@H](CC(C)C)C(=O)N[C@@H](C)C(=O)N[C@H](C)C(=O)N(C)[C@@H](CC(C)C)C(=O)N(C)[C@@H](CC(C)C)C(=O)N(C)[C@@H](C(C)C)C(=O)N1C [CYCLOSPORINE] | Not Active | Not Active | Not Active | Not Active | Not Active | Not Active | Not Active | Not Active | Not Active | Not Active | – | – | – |
| CN(C)/N=N/c1[nH]cnc1C(N)=O [DACARBAZINE] | Not Active | Not Active | Not Active | Not Active | Not Active | Not Active | Not Active | Not Active | Not Active | Not Active | – | – | – |
| COc1ccc2c(c1)[C@]13CCCC[C@@H]1[C@H](C2)N(C)CC3 [DEXTROMETHORPHAN] | Not Active | Not Active | Not Active | Not Active | – | – | Not Active | Not Active | Not Active | Not Active | 2420 nM | 1640 nM | – |
| CC(=O)Nc1c(I)c(NC(C)=O)c(I)c(C(=O)O)c1I [DIATRIZOIC ACID] | Not Active | Not Active | Not Active | Not Active | Not Active | Not Active | Not Active | Not Active | Not Active | Not Active | – | – | – |
| COP(=O)(OC)OC=C(Cl)Cl [DICHLORVOS] | Not Active | Not Active | Not Active | Not Active | Not Active | Not Active | Not Active | Not Active | Not Active | Not Active | – | – | – |
| O=C(O)Cc1ccccc1Nc1c(Cl)cccc1Cl [DICLOFENAC] | Not Active | Not Active | Not Active | Not Active | Not Active | Not Active | Not Active | Not Active | Not Active | Not Active | – | – | – |
| C[C@H]1O[C@@H](O[C@H]2[C@@H](O)C[C@H](O[C@H]3[C@@H](O)C[C@H](O[C@H]4CC[C@@]5(C)[C@H](CC[C@@H]6[C@@H]5CC[C@]5(C)[C@@H](C7=CC(=O)OC7)CC[C@]65O)C4)O[C@@H]3C)O[C@@H]2C)C[C@H](O)[C@@H]1O [DIGITOXIN] | Not Active | Not Active | Not Active | Not Active | Not Active | Not Active | Not Active | Not Active | Not Active | Not Active | – | – | – |
| CCN1CC(CCN2CCOCC2)C(c2ccccc2)(c2ccccc2)C1=O (stereo not given) [DOXAPRAM] | Not Active | Not Active | Not Active | Not Active | Not Active | Not Active | Not Active | Not Active | Not Active | Not Active | – | – | – |
| Cn1c(=O)c2c(ncn2CC2OCCO2)n(C)c1=O [DOXOFYLLINE] | Not Active | Not Active | Not Active | Not Active | Not Active | Not Active | Not Active | Not Active | Not Active | Not Active | – | – | – |
| COc1cccc2c1C(=O)c1c(O)c3c(c(O)c1C2=O)C[C@@](O)(C(=O)CO)C[C@@H]3O[C@H]1C[C@H](N)[C@H](O)[C@H](C)O1 [DOXORUBICIN] | Not Active | Not Active | Not Active | Not Active | Not Active | Not Active | Not Active | Not Active | Not Active | – | – | – | 31900 nM |
| COc1cccc2c1C(=O)c1c(O)c3c(c(O)c1C2=O)C[C@@](O)(C(=O)CO)C[C@@H]3O[C@H]1C[C@H](N)[C@@H](O)[C@H](C)O1 [EPIRUBICIN] | Not Active | Not Active | Not Active | Not Active | Not Active | Not Active | Not Active | Not Active | Not Active | Not Active | – | – | – |
| C[C@]12CC[C@@H]3c4ccc(OC(=O)c5ccccc5)cc4CC[C@H]3[C@@H]1CC[C@@H]2O [ESTRADIOL BENZOATE] | Not Active | Not Active | Not Active | Not Active | Not Active | Not Active | Not Active | Not Active | Not Active | Not Active | – | – | – |
| C[C@]12CC[C@@H]3c4ccc(O)cc4CC[C@H]3[C@@H]1CC[C@@H]2O [ESTRADIOL] | Not Active | Not Active | Not Active | Not Active | Not Active | Not Active | Not Active | Not Active | Not Active | Not Active | – | – | – |
| CC[C@@H](CO)NCCN[C@@H](CC)CO [ETHAMBUTOL] | Not Active | Not Active | Not Active | Not Active | Not Active | Not Active | Not Active | Not Active | Not Active | Not Active | – | – | – |
| CC1(C)O[C@@H]2C[C@H]3[C@@H]4C[C@H](F)C5=CC(=O)C=C[C@]5(C)[C@H]4[C@@H](O)C[C@]3(C)[C@]2(C(=O)CO)O1 [FLUNISOLIDE] | Not Active | Not Active | Not Active | Not Active | Not Active | Not Active | Not Active | Not Active | Not Active | Not Active | – | – | – |
| CC1(C)O[C@@H]2C[C@H]3[C@@H]4C[C@H](F)C5=CC(=O)C=C[C@]5(C)[C@@]4(F)[C@@H](O)C[C@]3(C)[C@]2(C(=O)CO)O1 [FLUOCINOLONE ACETONIDE] | Not Active | Not Active | Not Active | Not Active | Not Active | Not Active | Not Active | Not Active | Not Active | Not Active | – | – | – |
